Assay results reported in US20190054054A1, “Methods reducing or preventing oxidation of high density lipoprotein (HDL)” (Amarin Pharmaceuticals Ireland Limited, priority 2017, published 2019).
Values joined by “and” are separate entries in the source; they are usually repeats but may differ in a detail not shown here. Identical values can stand only once.

What was measured:
[1] = Membrane cholesterol domain peak intensity, x-ray diffraction of POPC/cholesterol membranes (Example 9); conditions: 1.5:1 C/P mole ratio; for % change Vs control / Relative Cholesterol Domain Preak Intensity: drug-to-phospholipid mole ratio 1:30; for Relative Cholesterol Domain Preak Intensity: POPC and cholesterol
Procedure: The fatty acid stock solutions were stored at −20° C. until use. […] Samples were shell-dried under nitrogen gas and placed under vacuum for 3 hours to remove residual solvent at room temperature. After desiccation, each sample was resuspended in saline buffer (0.5 mM HEPES, 154 mM NaCl, pH 7.3) to yield a final phospholipid concentration of 2.5 mg/mL. Lipid suspensions were then vortexed for 3 minutes at ambient temperature to form MLVs. Membrane lipid vesicles were oriented for x-ray diffraction analysis as described by others (e.g., Herbette et al., Biophys. […] Briefly, a 100 μL aliquot of each MLV preparation (containing 250 μg MLV) was transferred to a Lucite® sedimentation cell fitted with an aluminum foil substrate designed to collect MLVs into a single membrane pellet upon centrifugation. […] After centrifugal orientation, sample supernatants were aspirated and aluminum foil substrates, each supporting a single membrane pellet, were removed from the sedimentation cells. Sample pellets were dried for 5-10 minutes at ambient conditions, mounted onto curved glass supports, and placed in hermetically-sealed, brass or glass containers (for immediate analysis or temporary storage, respectively). All x-ray diffraction experiments were conducted at 20° C., 74% relative humidity. The latter was established by exposing membrane samples to saturated solutions of L-(+)-tartaric acid (K2C4H4O6.½H2O) for at least 1 hour prior to experimental analysis. Oriented membrane samples were aligned at grazing incidence with respect to a collimated, mono-chromatic CuKα x-ray beam (Kα1 and Kα2 unresolved; λ=1.54 Å) produced by a Rigaku Rotaflex RU-200, high-brilliance microfocus generator (Rigaku-MSC, The Woodlands, Tex.) as previously described (Mason et al., Biophys. J., vol. 55(4), pages 769-778 (1989)). The samples were initially subjected to x-ray diffraction analysis at least 12 hours after formation of the membrane pellets and retested for up to several days. Analytical x-rays were generated by electron bombardment of a rotating copper anode and are filtered through a thin nickel foil to provide monochromatic radiation (λ=1.54 Å). Collimation of the x-ray beam was achieved using a single Franks mirror. Diffraction data were collected on a one-dimensional, position-sensitive electron detector (Hecus X-ray Systems, Graz, Austria) at a sample-to-detector distance of 150 mm from the sample site. The d-space for any given membrane multi bilayer is a measurement of the unit cell periodicity of the membrane lipid bilayer (e.g., the distance from the center of one lipid bilayer to the next including surface hydration), and is calculated from Bragg's Law, h λ=2 d sin θ, where h is the diffraction order, λ is the wavelength of the x-ray radiation (1.54 Å), d is the membrane lipid bilayer unit cell periodicity, and θ is the Bragg angle equal to one-half the angle between the incident beam and scattered beam. […] Routines written in Origin 8.6 (OriginLab Corporation, Northampton, Mass.) were used to determine total peak area (associated with all diffraction peaks in a given pattern) against which the second-order cholesterol domain peak was normalized. The raw data collected in this study was normalized using internal. Data were presented as mean+S.E.M. for (N) separate samples or treatment groups. Differences between groups were analyzed using the two-tailed, Student's t-test (for comparisons between only two groups) or ANOVA followed by Dunnett or Student-Newman-Keuls multiple comparisons post-hoc analysis (for comparisons between three or more groups). Alpha error was set to 0.05 in this study.

[2] = system: HUVECs exposed to oxLDL; assay: NO and ONOO^− release from HUVECs exposed to oxLDL, nanosensors (Example 8); format: cell-based, human; conditions: oxLDL 20 min, then treatment for 1 hour; EPA 10 μM, ATM 1.0 μM
Procedure: Human umbilical vein endothelial cells (HUVECs) were isolated into primary cultures from female donors by Clonetics (San Diego, Calif.) and purchased as proliferating cells. All cell culture donors were healthy, with no pregnancy or prenatal complications. […] The confluent cells (4 to 5×10^5 cells/35 mm dish) were placed with minimum essential medium containing 3 mM L-arginine and 0.1 mM BH4 [(6R)-5,6,7,8-tetrahydrobiopterin]. Before experimental use, the cells (from second or third passage) were rinsed twice with Tyrode-HEPES buffer with 1.8 mM CaCl2).
The omega-3 fatty acids (O3FAs) cis-5,8,11,14,17-eicosapentaenoic acid (EPA) and docosahexaenoic acid (DHA) were purchased from Sigma-Aldrich (St. Louis, Mo.) and prepared initially at 11 mM in redistilled ethanol. Primary and secondary O3FA stock solutions were prepared and stored under argon at −20° C.
The oxLDL causes eNOS uncoupling and endothelial dysfunction to reproduce disease-like conditions. 25 Venous blood from healthy normolipidemic volunteers was collected into Na-EDTA (1 mg/mL blood) vacuum tubes after a 12-hour fast. Plasma was immediately separated by centrifugation at 3,000 g for 10 minutes at 4° C.
Tris-NaCl buffer was added to the dialyzed LDL to adjust the protein concentration to 30 mg/mL. A 1-mL aliquot of 20 μM CuSO4 was added to 1 mL of dialyzed normal LDL.
Oxidation was monitored by the use of measurements of TBARS. Briefly, LDL was incubated with thiobarbituric acid (0.5 wt/vol, in H2SO4, 50 mM) for 30 minutes at 100° C. […] TBARS concentration was determined as malondialdehyde (MDA) equivalents with the use of an MDA standard curve.
Concurrent measurements of NO and ONOO^− were performed with tandem electrochemical nanosensors combined into one working unit with a total diameter of 200-400 nm. Their design was based on previously developed and chemically modified carbon-fiber technology. Each of the nanosensors was made by depositing a sensing material on the tip of a carbon fiber (length 4 to 5 μm, diameter 100-200 nm). The fibers were sealed with nonconductive epoxy and electrically connected to copper wires with conductive silver epoxy. Conductive films of polymeric Ni(II) tetrakis (3-methoxy-4-hydroxyphenyl) porphyrin and Mn(III) [2.2] paracyclophanylporphyrin were used for the NO and ONOO^− sensors, respectively.
The amperometric method (with a response time of 0.1 ms) provides a quantitative signal (current) that is directly proportional to changes (from basal levels) in NO or ONOO^− concentration. Amperometric measurements were performed with a Gamry III double-channel potentiostat. Basal NO or ONOO^− levels were measured by differential pulse voltammetry in separate experiments.
All measurements of NO and ONOO^− were performed on intact endothelial cells. The NO/ONOO^− nanosensor module was positioned 5±2 μm from the surface of each individual endothelial cell using a computer-controlled M3301 micromanipulator (x-y-z resolution of 0.2 μm) and microscope (both from World Precision Instruments, Berlin, Germany) fitted with a CD camera.
Endothelial basal media was used for all the treatments. Controls were supplied with an equivalent volume of endothelial basal media.
Data are presented as mean±S.D. for (N) separate samples or experiments. Differences between groups were analyzed using the two-tailed, Student t-test (for comparisons between only two groups) or ANOVA followed by Student-Newman-Keuls multiple comparisons post-hoc analysis (for comparisons between three or more groups). Only differences with probability values less than 0.05 were considered significant.

[3] = system: HUVECs; assay: NO release from HUVECs incubated with agent-treated oxidized sdLDL (Example 12); format: cell-based, human; conditions: oxidized sdLDL pretreated with agent at 10.0 μM
Procedure: All samples, with the exception of non-oxidized sdLDL controls, were subjected to copper-induced oxidation for 1 hour. Human umbilical vein endothelial cells (HUVECs) were incubated with the various sdLDL samples, stimulated with calcium, and monitored for nitric oxide (NO) and peroxynitrite (ONOO^−) release using nanosensor technology.

Compound	reduction in cholesterol domain peaks as compared to vehicle treatment ([1]; 1:30) [%]	% change Vs control [1]	Relative Cholesterol Domain Preak Intensity [1]	Relative Cholesterol Domain Preak Intensity ([1]; listed as glycyrrhizin)	ONOO^− [2]	reduction of NO release as compared to vehicle-treated, oxidized sdLDL [3] [%]
CC1(C)[C@@H](O[C@H]2O[C@H](C(=O)O)[C@@H](O)[C@H](O)[C@H]2O[C@@H]2O[C@H](C(=O)O)[C@@H](O)[C@H](O)[C@H]2O)CC[C@]2(C)[C@H]3C(=O)C=C4[C@@H]5C[C@@](C)(C(=O)O)CC[C@]5(C)CC[C@@]4(C)[C@]3(C)CC[C@@H]12 [Glyc, glycyrrhizin]	54.9	−54.9 ± 12.3%	19.1 ± 1.2	19.1±1.2		
CCCCC/C=C\C/C=C\C/C=C\C/C=C\CCCC(=O)O [AA, arachidonic acid]		−45.2% and −46.8 ± 15.2%	22.5 ± 4.3			
CC(C)OC(=O)C(C)(C)Oc1ccc(C(=O)c2ccc(Cl)cc2)cc1 [fenofibrate]					299 ± 24	21
CC/C=C\C/C=C\C/C=C\CCCCCCCC(=O)O [ALA, α-linolenic acid]		−46.8% and −45.2 ± 11.3%	23.2 ± 0.6			
